Test results: PubChem BioAssay (NCI)
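Dose response: 5 concentrations. Exposure: 48 h. Format: 96-well plates. Endpoint: linear interpolation; highest concentration if not reached. TGI: total growth inhibition.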

Legend:
Assay in all cases: growth of human tumour cells (NCI), 48 h
HCC-2998 colon = system: HCC-2998 colon
SW-620 colon = system: SW-620 colon
HOP-62 NSCLC = system: HOP-62 NSCLC
NCI-H460 lung = system: NCI-H460 lung
SK-MEL-28 melanoma = system: SK-MEL-28 melanoma
KM12 colon = system: KM12 colon
UACC-257 melanoma = system: UACC-257 melanoma
SF-268 CNS = system: SF-268 CNS
OVCAR-8 ovarian = system: OVCAR-8 ovarian
MALME-3M melanoma = system: MALME-3M melanoma
OVCAR-4 ovarian = system: OVCAR-4 ovarian
SK-MEL-2 melanoma = system: SK-MEL-2 melanoma
HL-60(TB) leukemia = system: HL-60(TB) leukemia
SF-295 CNS = system: SF-295 CNS
LOX IMVI melanoma = system: LOX IMVI melanoma
OVCAR-5 ovarian = system: OVCAR-5 ovarian
A549 NSCLC = system: A549 NSCLC
HOP-92 NSCLC = system: HOP-92 NSCLC
SR leukemia = system: SR leukemia

Measured: TGI

O=C1CCCCC1C1(O)C(=O)Nc2cc(F)ccc21 (configuration not stated)
not listed: SR leukemia
> 100 µM: all other assays above

Cc1ccc(/C=C/C(=O)c2sc(C(N)=S)nc2C)cc1
not listed: OVCAR-4 ovarian | SR leukemia
> 100 µM: all other assays above

CSc1nc2nc(C)c(C)nc2c(=O)[nH]1
> 100 µM: all assays above

COc1ccc(NC(=O)CSc2nnc(Cc3ccccc3)o2)cc1
not listed: HL-60(TB) leukemia | HOP-92 NSCLC | SR leukemia
> 100 µM: all other assays above

N#Cc1ccc(Nc2cnc3cc(N)ccc3n2)cc1
> 100 µM: all assays above

CNC(=S)NNC(=O)c1c(C)nc2sccn12
not listed: OVCAR-4 ovarian
> 100 µM: all other assays above
